# Assay results taken from publication PMC11025096, “Universal Glycosyltransferase Continuous Assay for Uniform Kinetics and Inhibition Database Development and Mechanistic Studies Illustrated on ST3GAL1, C1GALT1, and FUT1” (ACS Omega, 2024).
# Tests used:
# CMK (cytidylate kinase) = target: T1, CMK (cytidylate kinase) (Escherichia coli, UniProt P0A6I0); test: coupled PK/LDH NADH fluorescence progress curves over CMP serial dilution; format: biochemical
# T1 sequence (P0A6I0 1-227): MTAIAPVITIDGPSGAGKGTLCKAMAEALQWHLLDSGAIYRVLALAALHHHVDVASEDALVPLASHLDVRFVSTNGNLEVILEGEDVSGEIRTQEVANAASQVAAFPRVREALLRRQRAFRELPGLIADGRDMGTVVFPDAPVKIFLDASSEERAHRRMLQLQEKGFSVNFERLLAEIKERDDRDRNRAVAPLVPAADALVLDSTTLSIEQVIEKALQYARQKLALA
# FUT1 [1] = target: T2, FUT1 (Homo sapiens, UniProt P19526); test: donor at fixed saturating concentration in UGC continuous coupled assay (NDK/PK/LDH); format: biochemical
# T2 construct: pGEn2 construct expressed in HEK293F; tag removed with TEV protease
# T2 sequence (P19526 1-365): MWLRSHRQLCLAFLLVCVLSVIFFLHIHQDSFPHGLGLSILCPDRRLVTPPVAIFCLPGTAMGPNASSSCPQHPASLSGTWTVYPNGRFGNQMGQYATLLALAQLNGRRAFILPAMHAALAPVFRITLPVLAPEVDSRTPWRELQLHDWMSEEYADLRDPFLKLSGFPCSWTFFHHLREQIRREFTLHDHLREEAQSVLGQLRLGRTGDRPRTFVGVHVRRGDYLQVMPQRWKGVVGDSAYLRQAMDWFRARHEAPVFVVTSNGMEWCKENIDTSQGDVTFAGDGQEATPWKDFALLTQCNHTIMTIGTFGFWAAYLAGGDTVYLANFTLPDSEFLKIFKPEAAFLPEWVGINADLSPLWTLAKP
# ST3GAL1 [2] = target: T3, ST3GAL1 (Homo sapiens, UniProt Q11201); test: UGC continuous coupled NADH fluorescence assay, […] min enzyme-inhibitor preincubation, dose response; format: biochemical
# T3 construct: pGEn2 construct expressed in HEK293F; tag removed with TEV protease
# T3 sequence (Q11201 1-340): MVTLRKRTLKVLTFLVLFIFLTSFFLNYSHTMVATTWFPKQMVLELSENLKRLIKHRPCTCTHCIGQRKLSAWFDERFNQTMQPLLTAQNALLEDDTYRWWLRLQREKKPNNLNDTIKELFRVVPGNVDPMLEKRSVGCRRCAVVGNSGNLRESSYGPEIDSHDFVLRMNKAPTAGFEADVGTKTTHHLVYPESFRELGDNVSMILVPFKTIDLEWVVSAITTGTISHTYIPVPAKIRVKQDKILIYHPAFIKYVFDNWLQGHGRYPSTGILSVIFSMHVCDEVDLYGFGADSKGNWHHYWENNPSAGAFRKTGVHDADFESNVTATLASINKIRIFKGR
# FUT1 [3] = target: T2, FUT1; test: as above; format: biochemical
# C1GALT1 = target: T4, C1GALT1 (Homo sapiens, UniProt Q9NS00); test: biochemical; parameters: UGC coupled continuous assay, NADH fluorescence depletion, 30 min enzyme-inhibitor preincubation, 37 °C; conditions: acceptor 2x Km, donor 0.5x Km; rate at 5 min; extrapolated; read-out: Log IC50 (M) C1GALT1 (converted)
# T4 construct: pGEn2 construct expressed in HEK293F (coexpressed with chaperone C1GALT1C1); tag removed with TEV protease
# T4 sequence (Q9NS00 whole entry): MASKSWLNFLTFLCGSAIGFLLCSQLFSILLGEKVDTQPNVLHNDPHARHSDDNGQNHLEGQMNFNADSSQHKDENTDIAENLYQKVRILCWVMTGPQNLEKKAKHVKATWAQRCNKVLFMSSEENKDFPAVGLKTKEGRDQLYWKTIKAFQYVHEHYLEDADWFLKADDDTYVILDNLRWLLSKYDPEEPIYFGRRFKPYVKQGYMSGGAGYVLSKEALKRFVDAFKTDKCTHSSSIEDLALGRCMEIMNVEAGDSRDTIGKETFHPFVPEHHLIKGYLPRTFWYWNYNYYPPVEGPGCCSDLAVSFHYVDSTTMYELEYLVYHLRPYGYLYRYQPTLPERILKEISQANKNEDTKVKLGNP
# Method: (§1) Soyasaponin 1 stock solution was prepared at 1.25 mM in 2% (v/v) Triton X-100 and 10% (v/v) DMSO. Inhibition assays were performed following a method similar to that used in the kinetics study. The master mixtures included all of the components except for the inhibitor and the enzyme. A 2-fold serial dilution from the inhibitor’s stock solution was prepared in a blank solution containing 2 and 10% (v/v) Triton X-100 and DMSO, respectively. The enzyme and the inhibitor were mixed, distributed to the wells, and preincubated for 30 min at 37 °C. A 10 min incubation period was also carried out at 37 °C for the master mixture, and the reaction was initiated by adding the master mixture to the wells. […] The effect of the activity percentage was calculated at each concentration of the inhibitor as follows [drawing 1] where SI, S100, S0 are the absolute values of the slopes from the progress curves of the reaction with inhibitor, […] respectively. IC50 and pIC50 (−log IC50 in molar concentration) values were calculated as depicted in Tables S3 and S4 (Supporting Information). Rates for the comparative dose response were calculated for each enzyme at the last time point where the uninhibited reaction maintained its linearity. […] Time and dose dependent inhibition was measured at varying concentrations of Soyasaponin 1. […]
# ST3GAL1 [4] = target: T3, ST3GAL1; test: biochemical; parameters: UGC coupled continuous assay, NADH fluorescence depletion, 30 min enzyme-inhibitor preincubation, 37 °C; conditions: acceptor and donor at Km; 20 min; read-out: Log IC50 (M) 20 Minutes (converted)
# Method: as §1
# FUT1 [5] = target: T2, FUT1; test: Michaelis-Menten kinetics, UGC continuous coupled assay (NDK/PK/LDH); format: biochemical
# ST3GAL1 [6] = target: T3, ST3GAL1; test: Michaelis-Menten kinetics, UGC continuous coupled assay (CMK/NDK/PK/LDH); format: biochemical
structure (smiles),measurement,setting,value
Nc1ccn([C@@H]2O[C@H](COP(=O)(O)O)[C@@H](O)[C@H]2O)c(=O)n1 [CMP],coupled PK/LDH NADH fluorescence progress curves over CMP serial dilution,CMK (cytidylate kinase),the initial instant phosphorylation of CMP to CDP via CMK followed by a slower phosphorylation of CDP via PK
C[C@@H]1O[C@H](OP(=O)(O)OP(=O)(O)OC[C@H]2O[C@@H](n3cnc4c(=O)[nH]c(N)nc43)[C@H](O)[C@@H]2O)[C@@H](O)[C@H](O)[C@@H]1O [GDP-Fuc],donor at fixed saturating concentration in UGC continuous coupled assay (NDK/PK/),FUT1 [1],Kinetics parameters for FUT1 were calculated with a saturation concentration of the donor GDP-Fuc and variable concentrations of the acceptors
C[C@@H]1O[C@@H](O[C@H]2[C@H](O[C@H]3[C@H](O[C@H]4CC[C@@]5(C)[C@@H](CC[C@]6(C)[C@@H]5CC=C5[C@@H]7CC(C)(C)C[C@@H](O)[C@]7(C)CC[C@]56C)[C@@]4(C)CO)O[C@H](C(=O)O)[C@@H](O)[C@@H]3O)O[C@H](CO)[C@H](O)[C@@H]2O)[C@H](O)[C@H](O)[C@H]1O [Soyasaponin1],IC50,ST3GAL1 [2],31 µM
same,IC50,FUT1 [3],52 µM
same,IC50,C1GALT1,0.000367 M
same,IC50,ST3GAL1 [4],5.87e-05 M
CC(=O)N[C@H]1[C@@H](OCc2ccccc2)O[C@H](CO)[C@H](O)[C@@H]1O[C@@H]1O[C@H](CO)[C@H](O)[C@H](O)[C@H]1O [T-Bn],"Michaelis-Menten kinetics, UGC continuous coupled assay (NDK/PK/LDH)",FUT1 [5],152 min^–1 (kcat)
CC(=O)N[C@H]1C(O)O[C@H](CO)[C@H](O)[C@@H]1O[C@@H]1O[C@H](CO)[C@H](O)[C@H](O)[C@H]1O (stereo partly drawn) [galacto-N-biose],"Michaelis-Menten kinetics, UGC continuous coupled assay (CMK/NDK/PK/LDH)",ST3GAL1 [6],195 min^–1 (kcat)
CC(=O)N[C@H]1C(O)O[C@H](CO)[C@@H](O)[C@@H]1O[C@@H]1O[C@H](CO)[C@H](O)[C@H](O)[C@H]1O (stereo partly drawn) [lacto-N-biose],"Michaelis-Menten kinetics, UGC continuous coupled assay (NDK/PK/LDH)",FUT1 [5],357 min^–1 (kcat)
